Series [1] relates to Mouse pre-adipocyte 3T3-L1 cells. Description: Differentiation of 3T3-L1 pre-adipocytes in an in vitro assay (lipid content). The settings on record: 0.1 μM, 7 days; taken as reference. The format is cell-based. The procedure: The compounds of the invention have been screened in an in-vitro adipocyte differentiation assay, as described in Example 26. Mouse pre-adipocyte 3T3-L1 cells were treated with compounds at concentrations less than or equal to 10^−6 M for 7 days.
The compounds can be considered active for adipocyte differentiation if the lipid accumulation induced is at least about 20%, or at least about 40% of the lipid accumulation induced by 5-[3-(3,5,5,8,8-Pentamethyl-5,6,7,8-tetrahydro-naphthalen-2-yl)-4-trifluoromethoxy-benzylidene]-thiazolidine-2,4-dione when it is applied to control cultures of mouse preadipocyte 3T3-L1 cells at a concentration of about 1×10^−7 M.
The following protocol was used to determine adipocyte differentiation activity of the compounds of the invention: Mouse pre-adipocyte 3T3-L1 cells obtained from ATCC (American Tissue Culture Collection, MD) were initially grown in DME Dulbecco's modified Eagle's medium containing 4500 mg/L glucose; 4 mM L-glutamine; 10 U/ml Pen-G; 10 mcg/ml Streptomycin and 10% Bovine Calf Serum (CS) at 37° C. and 10% CO2. Cells were plated in 96 well plates at a density of approximately 3,000 cells/well and grown to confluence (when cells use 100% of the available space on the well) in the same medium. […] The cellular lysates were analyzed for their lipid content using the Triglyceride-GPO Trinder reagent from Sigma.

Series [2] is described as follows: Oral bioavailability, single dose pharmacokinetic study in rats (plasma concentration by HPLC). Format: in vivo, Sprague Dawley rats. The settings on record: rat; for concentration of compound in plasma: single oral dose 10 mg/kg in 10% HPβCD, 0.5–26 hours, FIG. 7. The source says:
Oral bioavailability is an important pharmaceutical characteristic for a compound to advance through drug development. A basic assessment of the oral bioavailability of a compound can be done in a single dose pharmacokinetic study in wild type rats.
Six to eight week-old male Sprague Dawley rats (Harlan) were housed in a fixed 12–12- hr artificial light-dark cycle, and maintained on a standard rodent diet provided ad libitum. Animals were allowed two days to acclimate in this experimental environment prior to the initiation of the study. Compounds 24 and 25 were dissolved in a 10% hydroxypropyl beta cyclodextrin solution and administered by oral gavage in a final dose of 10 mg/kg in a volume of 5 ml/kg. Treatment groups were divided as follows:
Treatment groups(n=3/group): • 1) Compound 24 (10 mg/kg) • 2) Compound 25 (10 mg/kg)
Each animal received a single treatment, after which, the animal was bled from the tail vein at the following time points: 0.5, 1, 2, 4, 6, 9, 12, and 26 hours after treatment. To measure the concentration of each compound in plasma, blood samples were collected in heparin-coated tubes, and the plasma was isolated and analyzed by HPLC.

Series [3] has as its system Mouse pre-adipocyte 3T3-L1 cells. The settings on record: stated as previously shown; cited from earlier work.
The next series deals with KKA^y mice. Description: Oral treatment of type 2 diabetes in KKA^y mice (serum glucose, triglyceride, cholesterol). The format is in vivo, mouse. The settings on record: KKA^y mice, 1, 3, 10 mg/kg oral in 10% HPβCD, following 4 weeks of treatment, FIG. 2e. The source says:
The procedure for this in-vivo assay for anti-diabetes activity was described in detail by Iwatsuka, et al. (1970 General Survey of Diabetic Features of Yellow KK Mice. Endocrinol. Japon. 17: 23–35, incorporated herein in its entirety by reference).
Experimental Procedures: Six to eight week-old male KKA^y mice (obtained from Jackson Labs of Bar Harbord, Me.) were housed in a fixed 12–12-hr artificial light-dark cycle, and maintained on a standard rodent diet provided ad libitum. Animals were allowed two days to acclimate in this experimental environment prior to the initiation of the study.
Prior to initiation of treatment with the compounds of the invention, the animals were bled from the tail vein (100–200 μL of whole blood) and serum levels of glucose and triglycerides were measured in duplicate (Trinder kits; Sigma, St. Louis, Mo.). Based on these initial measures, animals were sorted into groups with approximately the same average serum glucose levels. Once sorted, the animals were housed one per cage and provided rodent diet ad libitum. Unless otherwise indicated, compounds were suspended in sesame oil, and administered by oral gavage once daily to animals in a volume of 3 ml/kg/dose.
Treatment Group A (n=5/group): (See Results in FIG. 2a) • 1) KKA^y vehicle control (sesame oil) • 2) Compound 1 (3 mg/kg) • 3) Compound 1 (10 mg/kg) • 4) Compound 2 (3 mg/kg) • 5) Compound 2 (10 mg/kg)
Treatment Group B (n=6/group): (See Results in FIG. 2b) • 1) KKA^y vehicle control (sesame oil) • 2) Compound 11 (15 mg/kg)
Treatment Group C (n=6/group): (See Results in FIG. 2c) • 1) KKA^y vehicle control (sesame oil) • 2) Compound 13 (15 mg/kg)
Treatment Group D (n=6/group): (See Results in FIG. 2d) • 1) KKA^y vehicle control (CMC) • 2) Compound 25 (3 mg/kg, CMC) Compound 25 was suspended in a solution of carboxymethyl cellulose (CMC; 1% carboxy methyl cellulose in H2O, with 10% polyethelene glycol 400), and administered to animals in a volume of 5 ml/kg/dose.
Treatment Group E (n=5/group): (See Results in FIG. 2e) • 1) KKA^y vehicle control (10% HPβCD) • 2) Compound 25 (1 mg/kg) • 3) Compound 25 (3 mg/kg) • 4) Compound 25 (10 mg/kg) Compound 25 was dissolved in a 10% hydroxy propyl beta cyclodextrin solution, and administered to animals in a volume of 10 ml/kg/dose.
Serum glucose, triglyceride and/or cholesterol levels were measured in duplicate. The blood is kept at room temperature to allow coagulation, after which the serum is separated and assayed for glucose, triglyceride and/or cholesterol levels. As shown in FIGS. 2a–2d all of the compounds tested reduced serum glucose and triglyceride levels, some with doses as low as 3 mg/kg when administered once a day.

Another series concerns db/db mutant mice. Description: Oral treatment of type 2 diabetes in db/db mutant mice (serum glucose, triglyceride). Format: in vivo, mouse. How it is done: Experimental Procedure: Seven week-old female db/db mutant mice (C57BL/KsJ-db +/+m; Jackson Labs, Bar Harbour, Me.) were housed in a fixed 12—12-hr artificial light-dark cycle, and maintained on a standard high fat diet (containing at least 11% crude fat) provided ad libitum (Teklad S-2335). Animals were allowed two days to acclimate in this experimental environment prior to the initiation of the study. Prior to initiation of treatment, the animals were bled from the tail vein (100–200 μL of whole blood) and serum levels of glucose and triglycerides were measured in duplicate (Trinder kits; Sigma, St. Louis, Mo.). Based on these initial measures, animals were sorted into treatment groups with approximately the same average serum glucose levels. Once sorted, the animals were housed five per cage and provided high fat rodent diet ad libitum.
Treatment Groups (n=5/group): • 1) db/db control (CMC) • 2) Compound 25 (0.1 mg/kg, in CMC) • 3) Compound 25 (0.3 mg/kg, in CMC) • 4) Compound 25 (1 mg/kg, in CMC)
Compound 25 was suspended in a solution of carboxymethyl cellulose (CMC; 1% carboxy methyl cellulose in H2O, with 10% polyethelene glycol 400), and administered to animals in a volume of 5 ml/kg/dose. The drug is administered by oral gavage once daily at the beginning of the artificial light cycle.
To monitor the effect of the tested compounds, animals were bled following a three-hour fast at the end of the dark cycle on days 0, 7, 14 of the treatment period. Fasting serum glucose and triglyceride levels were measured in duplicate. The blood is kept at room temperature to allow coagulation, after which the serum is separated and. assayed for glucose and triglyceride levels.

For series [4], the system named is carcinogen induced mammary tumors. Description: Progression of carcinogen induced mammary tumors in Sprague Dawley rats. Format: in vivo, rat. The settings on record: oral once daily for four weeks. The procedure:
Procedure: Five week-old female Sprague Dawley rats (Harlan) were housed in a fixed 12–12-hr artificial light-dark cycle, and maintained on a standard rodent diet provided ad libitum. Animals were allowed two days to acclimate in this experimental environment prior to the initiation of the study.
To induce mammary tumors, the female […] were injected intraperitoneally with the carcinogen n-nitroso-n-methylurea, in a single dose of 50 mg/kg in acidified normal saline (pH 4 w/acetic acid) at a final volume of 10 mg/ml (5 ml/kg). After eight weeks, mammary tumors are detected, and the tumor bearing females are sorted into treatment groups. Once sorted, the animals were housed four per cage and provided rodent diet ad libitum. All animals are treated with compound 1 or a vehicle for four weeks, during which time changes in tumor size are monitored. Tumors were classified as regressing, static or progressing.
Treatment groups (n=8/group): • 1) Control (sesame oil) • 2) Compound 6 (20 mg/kg) • 3) Compound 11 (100 mg/kg) • 4) Compound 13 (50 mg/kg) • 5) Compound 24 (50 mg/kg) • 6) Compound 25 (20 mg/kg) • 7) Compound 25 (100 mg/kg)
All of the compounds tested were suspended in sesame oil, and administered to animals in a volume of 3 ml/kg/dose, except compound 25 which was dissolved in a 10% hydroxy propyl beta cyclodextrin solution, and administered to animals in a volume of 10 ml/kg/dose. All treatments were administered by oral gavage once daily for four weeks.
To monitor the effect of the tested compound, animals were examined for mammary tumors once every week. Tumors were classified into one of three categories, progressing, static or regressing.

[5] abbreviates: oral once daily in CMC, compared to control animals, FIG. 3.

Counter-ions that a name gives are not always drawn. Some results are limits rather than exact numbers.

With `Cc1cc2c(cc1-c1cc(/C=C3\SC(=O)NC3=O)ccc1OC(F)(F)F)C(C)(C)CCC2(C)C` [Compound 24, 5-[3-(3,5,5,8,8-Pentamethyl-5,6,7,8-tetrahydro-naphthalen-2-yl)-4-trifluoromethoxy-benzylidene]-thiazolidine-2,4-dione], the “differentiation of 3T3-L1 cells (lipid content), standard for differentiation activity” value in series [1] is reported as 100%. Moreover, the “concentration of compound in plasma” value in series [2] is “only detected as being present at near the limit of detection”. For the same molecule, the “inducer of adipocyte differentiation” value in series [3] is “potent inducer of adipocyte differentiation”.

On to `CCN1C(=O)CC(C)(C)c2cc(C)c(-c3cc(/C=C4\SC(=O)NC4=O)ccc3OC(F)(F)F)cc21` [Compound 25, 5-[3-(1-Ethyl-4,4,6-trimethyl-2-oxo-1,2,3,4-tetrahydro-quinolin-7-yl)-4-trifluoromethoxy-benzylidene]-thiazolidine-2,4-dione, TRIS Salt], for which, in the series with KKA^y mice, the serum glucose level entry was “unexpectedly strong and simultaneous reduction”; the “serum total cholesterol level” value is “unexpectedly strong and simultaneous reduction”; the serum triglyceride level result is “unexpectedly strong and simultaneous reduction”. In addition, the “dose ameliorating the symptoms of diabetes (as low as)” value in the series on db/db mutant mice (once daily oral) was not below 0.3 mg/kg. In addition, in the series with db/db mutant mice (setting [5]), the fasting serum glucose entry was “reduced” and the fasting serum triglyceride entry is “reduced”. The “dose causing regression of tumors (as low as)” value in series [4] is not below 20 mg/kg. In addition, the regression of tumors entry in series [4] (FIG. 6) was “caused the regression of tumors”. Moreover, in series [4] (vs vehicle treated controls, FIG. 6), the “growth / progression of mammary (breast cancer) tumors” value is given as “slow or cause regression”. The “concentration of compound in plasma” value in series [2] is given as “significantly higher concentration”. Also, the oral bioavailability entry in series [2] (single oral dose 10 mg/kg, Compound 25 over Compound 24) was “improved bioavailability”.

Source of the values: patent US7102000B2, “Heterocyclic amide derivatives for the treatment of diabetes and other diseases” (Incyte San Diego Inc., priority 2002, dated 2006).
